In patent publication US20250282776A1, “Bicyclic TLR7 Agonists and Uses Thereof” (Bristol-Myers Squibb Company, priority 2024, published 2025):

Key:
[1] = biological target: T1, human TLR8 (hTLR8) (Homo sapiens, UniProt Q9NR97); experiment: Human TLR8 agonist activity assay (measured in a similar manner); type: cell-based; conditions: HEK-Blue TLR cells, SEAP reporter, measured in a similar manner to TLR7; some values average of multiple measurements
T1 construct: expressed in transfected cells
T1 sequence (Q9NR97 27-1041): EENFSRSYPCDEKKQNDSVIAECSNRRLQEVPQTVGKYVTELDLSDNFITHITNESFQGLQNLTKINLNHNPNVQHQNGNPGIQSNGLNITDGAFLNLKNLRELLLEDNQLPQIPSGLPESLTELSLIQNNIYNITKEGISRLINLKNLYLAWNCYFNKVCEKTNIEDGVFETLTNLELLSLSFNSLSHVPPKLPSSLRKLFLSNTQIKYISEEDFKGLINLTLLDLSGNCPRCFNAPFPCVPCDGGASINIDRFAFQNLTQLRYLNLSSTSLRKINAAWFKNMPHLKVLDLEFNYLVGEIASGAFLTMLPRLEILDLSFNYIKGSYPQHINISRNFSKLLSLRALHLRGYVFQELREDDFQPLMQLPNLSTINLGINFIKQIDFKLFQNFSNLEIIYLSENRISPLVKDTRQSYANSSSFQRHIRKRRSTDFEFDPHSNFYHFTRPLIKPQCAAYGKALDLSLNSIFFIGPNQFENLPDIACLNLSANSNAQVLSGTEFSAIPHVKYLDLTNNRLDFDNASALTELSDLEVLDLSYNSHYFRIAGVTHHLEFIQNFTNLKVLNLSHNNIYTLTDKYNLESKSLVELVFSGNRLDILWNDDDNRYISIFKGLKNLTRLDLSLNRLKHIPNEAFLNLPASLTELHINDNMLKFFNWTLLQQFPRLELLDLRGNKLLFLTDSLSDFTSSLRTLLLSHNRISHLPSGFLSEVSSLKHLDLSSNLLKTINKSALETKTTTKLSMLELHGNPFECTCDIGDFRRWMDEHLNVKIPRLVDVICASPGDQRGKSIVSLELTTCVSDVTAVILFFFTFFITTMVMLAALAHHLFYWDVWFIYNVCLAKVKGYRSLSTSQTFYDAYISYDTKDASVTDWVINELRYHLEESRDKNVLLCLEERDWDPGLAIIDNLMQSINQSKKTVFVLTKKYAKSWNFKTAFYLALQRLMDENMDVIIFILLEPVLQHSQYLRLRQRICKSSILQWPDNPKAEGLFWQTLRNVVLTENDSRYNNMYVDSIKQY
Experimental: (§1) This procedure describes a method for assaying human TLR7 (hTLR7) and human TLR8 (hTLR8) agonist activity of the compounds disclosed herein.
HEK-Blue™ TLR7 cells were added to each well of a 384-well tissue-culture plate (15,000 cells per well) and incubated 16-18 h at 37° C., 5% CO2. Compounds (100 nL) were dispensed into wells containing the HEK-Blue™ TLR cells and the treated cells were incubated at 37° C., 5% CO2. After 18 h, ten microliters 5 of freshly prepared Quanti-Blue™ reagent (Invivogen) was added to each well and incubated for 30 min (37° C., […]). SLAP levels were measured using an Envision plate reader (OD=620 nm). […] Some of the reported activities were the average of multiple measurements.
TLR8 activity was measured in a similar manner.

[2] = biological target: T2, human TLR7 (hTLR7) (Homo sapiens, UniProt Q9NYK1); experiment: Human TLR7 agonist activity assay (HEK-Blue TLR7 SEAP reporter); type: cell-based; conditions: HEK-Blue TLR7 cells, 18 h incubation, Quanti-Blue, OD 620 nm, some values average of multiple measurements
T2 construct: host or cells: HEK-Blue TLR7 cells (engineered human embryonic kidney cells)
T2 sequence (Q9NYK1 27-1049): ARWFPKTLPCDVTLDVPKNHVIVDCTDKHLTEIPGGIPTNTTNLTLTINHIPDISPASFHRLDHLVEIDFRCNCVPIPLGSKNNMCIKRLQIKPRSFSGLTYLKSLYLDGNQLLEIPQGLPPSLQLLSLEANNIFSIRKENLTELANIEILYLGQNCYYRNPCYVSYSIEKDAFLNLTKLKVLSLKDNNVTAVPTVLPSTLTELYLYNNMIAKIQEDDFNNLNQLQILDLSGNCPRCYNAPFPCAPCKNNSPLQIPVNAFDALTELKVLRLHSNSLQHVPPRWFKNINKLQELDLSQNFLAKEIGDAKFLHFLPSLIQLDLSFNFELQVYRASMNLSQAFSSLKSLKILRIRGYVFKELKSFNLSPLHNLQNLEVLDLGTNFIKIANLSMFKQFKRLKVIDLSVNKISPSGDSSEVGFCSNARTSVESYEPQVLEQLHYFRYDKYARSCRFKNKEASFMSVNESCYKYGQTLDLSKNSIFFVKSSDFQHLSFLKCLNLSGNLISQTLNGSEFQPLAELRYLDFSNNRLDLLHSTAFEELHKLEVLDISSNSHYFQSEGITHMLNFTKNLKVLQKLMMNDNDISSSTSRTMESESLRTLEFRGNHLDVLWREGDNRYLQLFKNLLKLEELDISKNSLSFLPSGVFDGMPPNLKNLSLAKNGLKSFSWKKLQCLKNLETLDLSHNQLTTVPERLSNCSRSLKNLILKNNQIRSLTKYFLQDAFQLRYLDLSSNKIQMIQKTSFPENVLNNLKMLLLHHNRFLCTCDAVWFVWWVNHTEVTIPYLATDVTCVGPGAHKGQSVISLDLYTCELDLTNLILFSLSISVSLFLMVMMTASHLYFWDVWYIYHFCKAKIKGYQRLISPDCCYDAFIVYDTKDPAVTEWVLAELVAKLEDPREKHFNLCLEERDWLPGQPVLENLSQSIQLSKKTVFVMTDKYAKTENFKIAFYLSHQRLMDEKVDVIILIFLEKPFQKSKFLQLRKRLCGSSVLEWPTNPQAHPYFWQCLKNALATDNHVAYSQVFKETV
Experimental: as §1
HEK-Blue™ TLR7 cells were added to each well of a 384-well tissue-culture plate (15,000 cells per well) and incubated 16-18 h at 37° C., 5% CO2. Compounds (100 nL) were dispensed into wells containing the HEK-Blue™ TLR cells and the treated cells were incubated at 37° C., 5% CO2. After 18 h, ten microliters 5 of freshly prepared Quanti-Blue™ reagent (Invivogen) was added to each well and incubated for 30 min (37° C., […]). SLAP levels were measured using an Envision plate reader (OD=620 nm). The half maximal effective concentration values (ECSO; compound concentration which induced a response halfway between the assay baseline and maximum) were calculated. Some of the reported activities were the average of multiple measurements.

Row | Compound | EC50 [1] [nM] | EC50 [2] [nM]
1 | CCCCN(CCO)c1nc(N)nc2cn(Cc3ccc(CN4CCCNCC4)cc3OC)nc12 [Compound 55] | 2030 | 349
2 | CCCCN(CCO)c1nc(N)nc2cn(Cc3c(F)cc(CN[C@H]4C[C@H](O)C4)cc3OC)nc12 [Compound 94] | 2660 | 1500
3 | CCCCN(CCO)c1nc(N)nc2cn(Cc3ccc(CNC4CCOC(C)(C)C4)cc3OC)nc12 (racemic) [Compound 103, 2-((5-Amino-2-(4-(((2,2-dimethyltetrahydro-2H-pyran-4-yl)amino)methyl)-2-methoxybenzyl)-2H-pyrazolo[4,3-d]pyrimidin-7-yl)(butyl)amino) ethan-1-ol] | 202 | 322
4 | CCCCN(CCO)c1nc(N)nc2cn(Cc3c(F)cc(N4CCC(N[C@@H]5CCOC5)CC4)cc3F)nc12 [Compound 96] | 1990 | 540
5 | CCCCN(CCO)c1nc(N)nc2cn(Cc3c(F)cc(C4CCN(C(C)C)CC4)cc3OC)nc12 [Compound 40] | 801 | 392
6 | CCCCN(CCO)c1nc(N)nc2cn(Cc3c(F)cc(CNC4CCOCC4)cc3F)nc12 [Compound 115] | 1500 | 108
7 | CCCCN(CCO)c1nc(N)nc2cn(Cc3ccc(CNC4(COC)CCOCC4)cc3OC)nc12 [Compound 165] | 460 | 
8 | CCCCN(CCO)c1nc(N)nc2cn(Cc3ccc(CN4CC5(CC(O)C5)C4)cc3OC)nc12 [Compound 27] | 1950 | 1970
9 | CCCCN(CCO)c1nc(N)nc2cn(Cc3ccc(CNC4CCC4)c4cn[nH]c34)nc12 [Compound 207] | 1180 | 2380
10 | CCCCN(CCO)c1nc(N)nc2cn(Cc3ccc(CN[C@H]4C[C@H]5COC[C@H]54)cc3OC)nc12 [Compound 22] | 547 | 614
11 | CCCCN(CCO)c1nc(N)nc2cn(Cc3ccc(CN4CC(O)C4)cc3OC)nc12 [Compound 20] | 705 | 1180
12 | CCCCN(c1nc(N)nc2cn(Cc3c(F)cc(C4CCN(C5CC6(COC6)C5)CC4)cc3OC)nc12)C(C)CO (stereo not shown) [Compound 179] | 213 | 121
13 | CCCCN(CCO)c1nc(N)nc2cn(Cc3c(F)cc(C4CCN(CCS(C)(=O)=O)CC4)cc3OC)nc12 [Compound 42] | 496 | 101
14 | CCCCN(CCO)c1nc(N)nc2cn(Cc3ccc(CNCCCCO)c4cccnc34)nc12 [Compound 59] | 1140 | 1550
15 | CCCCN(CCO)c1nc(N)nc2cn(Cc3c(OC)cc(CNCCOC)cc3OC)nc12 [Compound 143] | 1870 | 1700
16 | CCCCN(CCO)c1nc(N)nc2cn(Cc3ccc(CNC4CCC4)cc3C(F)F)nc12 [Compound 98] | 1150 | 1560
17 | CCCCN(CCO)c1nc(N)nc2cn(Cc3cccc4c3OCCN4C(=O)CN(C)C)nc12 [Compound 90] | 2410 | 2150
18 | CCCCN(CCO)c1nc(N)nc2cn(Cc3ccc(CNC(C)(C)C)cc3C(F)F)nc12 [Compound 128] | 628 | 1190
19 | CCCCN(CCO)c1nc(N)nc2cn(Cc3c(F)cc(CNCCOC)cc3OC)nc12 [Compound 73] | 593 | 320

Row | Compound | EC50 [1] [nM] | EC50 [2] [nM]
20 | COc1cc(CN[C@H]2C[C@H](OC)C2)ccc1Cn1cc2nc(N)nc(N(CCO)CCCCF)c2n1 [Compound 170] | 2500 | 1800
21 | CCCCN(CCO)c1nc(N)nc2cn(Cc3ccc(CNC4CCOC(C)C4)cc3OC)nc12 (single isomer, unassigned) [Compound 121] | 564 | 1360
22 | CCCCN(CCO)c1nc(N)nc2cn(Cc3ccc(CNC4CCN(CCOC)CC4)c4cccnc34)nc12 [Compound 66] | 2130 | 1590
23 | CCCCN(CCO)c1nc(N)nc2cn(Cc3ccc(CN[C@@H]4CCCN(C(=O)CN)C4)c4cccnc34)nc12 [Compound 198] | 2270 | 1310
24 | CCCCN(CCO)c1nc(N)nc2cn(Cc3ccc(CNC(C)(C)COC)cc3OC)nc12 [Compound 33] | 524 | 548
25 | CCCCN(CCO)c1nc(N)nc2cn(Cc3cnc(CN[C@H]4C[C@H](OC)C4)cc3OC)nc12 [Compound 124] | 1870 | 
26 | CCC[C@@H](CO)N(C)c1nc(N)nc2cn(Cc3ccc(CN4CCCC4)cc3OC)nc12 [Compound 87] | 1820 | 
27 | CCCCN(CCO)c1nc(N)nc2cn(Cc3ccc(CNC4CCOCC4)c4cn[nH]c34)nc12 [Compound 204] | 1270 | 
28 | CCCCN(CCO)c1nc(N)nc2cn(Cc3ccc(CNC4CCOCC4)c4ncsc34)nc12 [Compound 210] | 1860 | 
29 | CCCCN(CCO)c1nc(N)nc2cn(Cc3ccc(CNC4CC5(COC5)C4)cc3)nc12 [Compound 159] | 1190 | 
30 | CCCCN(CCO)c1nc(N)nc2cn(Cc3ccc(CNC4CCOC(C)(C)C4)c4cn[nH]c34)nc12 (stereo not shown) [Compound 209] | 2850 | 
31 | CCCCN(CCO)c1nc(N)nc2cn(Cc3ccc(CNC4CCC(F)(F)CC4)c4scnc34)nc12 [Compound 203] | 2400 | 
32 | CCCCN(CCO)c1nc(N)nc2cn(Cc3ccc(CN[C@H]4CCOC4)c4nccnc34)nc12 [Compound 205] | 1340 | 
33 | CCCN(CCO)c1nc(N)nc2cn(Cc3ccc(CNC4CCC4)cc3OC)nc12 [Compound 43] | 1740 | 
34 | CCCCN(CCO)c1nc(N)nc2cn(Cc3ccc(CNCCO)cc3C(F)F)nc12 [Compound 129] | 2710 | 
35 | CCCCN(CCO)c1nc(N)nc2cn(Cc3ccc(CNCC4CC5(CCC5)C4)c4cccnc34)nc12 [Compound 67] | 2160 | 
36 | CCCCN(CCO)c1nc(N)nc2cn(Cc3ccc(CNCCO)cc3)nc12 [Compound 160] | 1970 | 
37 | CCCCN(CCO)c1nc(N)nc2cn(Cc3ccc(CNC4CCOC(C)C4)cc3OC)nc12 (stereo not shown) [Compound 126] | 689 | 
38 | CCCCN(CCO)c1nc(N)nc2cn(Cc3ccc(CNC4(C)CCC4)cc3C(F)F)nc12 [Compound 167] | 1610 | 
